# From the supplement of paper PMC10307832
# Compound: CC(C)C[C@@H](C(=O)N[C@H](C(=O)OC1CCCC1)c1ccccc1)[C@H](O)C(=O)NO [Tosedostat]
# Assay: relative viability (nuclei count vs DMSO), 5 days (fraction); higher = more cells survive
# Conditions: 0.02 µM
# Outline: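 On vehicle-anchored 1536-well plates, lung cancer cell lines held overnight at 37 °C were pinned with five library-drug doses (not always all listed) spaced by √10. With no medium change over 5 days, they were then fixed, permeabilised and Hoechst-stained in one step and imaged at 4×. MetaXpress counted nuclei, and viability is the median across plates of treated-well over vehicle-well nuclei. Acceptance needed control CV below 25% and at least one doubling.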
row,Cell Line,relative viability
1,HCC-366,1.02
2,NCI-H1755,1
3,NCI-H838,0.965
4,LK-2,1.13
5,NCI-H2347,1.01
6,SK-MES-1,1.03
7,H3255,0.994
8,COR-L23,1.13
9,COR-L 105,1.03
10,IA-LM,1.07
11,LU99A,1.04
12,NCI-H2170,0.997
13,NCI-H460,1.02
14,HOP-62,1.12
15,HCC-44,1.09
16,A549,1.05
17,LXF-289,1.08

row,Cell Line,relative viability
1,BEN,1.01
2,HARA,1.15
3,HCC-78,0.938
4,NCI-H647,1.02
5,LCLC-97TM1,1.12
6,NCI-H2126,0.976
7,A-427,1.04
8,NCI-H650,1.07
9,RERF-LC-KJ,0.953
10,NCI-H1915,1.15
11,NCI-H661,1.01
12,NCI-H1975,0.973
13,NCI-H1395,0.894
14,201T,1
15,NCI-H2023,1.05
16,HCC-827,1.03

# Same assay, conditions: 0.06325 µM
row,Cell Line,relative viability
1,NCI-H23,0.907
2,Calu-6,0.925
3,HCC-366,1.01
4,NCI-H1755,0.999
5,NCI-H838,0.957
6,LK-2,1.11
7,NCI-H2347,1.05
8,SK-MES-1,1.02
9,H3255,0.869
10,COR-L23,1
11,COR-L 105,0.906
12,IA-LM,0.963
13,LU99A,1.11
14,NCI-H2170,0.963
15,NCI-H460,0.994
16,HOP-62,0.977
17,HCC-44,1.01
18,A549,0.945

row,Cell Line,relative viability
1,LXF-289,0.987
2,BEN,1.03
3,HARA,0.977
4,HCC-78,1.04
5,NCI-H647,1.01
6,LCLC-97TM1,0.973
7,NCI-H2126,1.01
8,A-427,0.955
9,NCI-H650,0.988
10,RERF-LC-KJ,1.03
11,NCI-H1915,0.949
12,NCI-H661,0.991
13,NCI-H1975,1
14,NCI-H1395,0.938
15,201T,1
16,NCI-H2023,0.916
17,HCC-827,1.06

# Same assay, conditions: 0.2 µM
row,Cell Line,relative viability
1,NCI-H23,0.899
2,Calu-6,0.928
3,HCC-366,1.03
4,NCI-H1755,1.05
5,NCI-H838,0.951
6,LK-2,0.926
7,NCI-H2347,1.05
8,SK-MES-1,1.01
9,H3255,0.94
10,COR-L23,0.965
11,COR-L 105,0.81
12,IA-LM,0.918
13,LU99A,0.99
14,NCI-H2170,1.02
15,NCI-H460,0.99
16,HOP-62,0.932
17,HCC-44,0.982
18,A549,0.922

row,Cell Line,relative viability
1,LXF-289,0.992
2,BEN,1.09
3,HARA,0.922
4,HCC-78,1
5,NCI-H647,1.02
6,LCLC-97TM1,0.876
7,NCI-H2126,1.01
8,A-427,0.992
9,NCI-H650,0.731
10,RERF-LC-KJ,0.944
11,NCI-H1915,0.998
12,NCI-H661,0.948
13,NCI-H1975,0.884
14,NCI-H1395,0.972
15,201T,1.02
16,NCI-H2023,0.937
17,HCC-827,1.1

# Same assay, conditions: 0.6325 µM
row,Cell Line,relative viability
1,NCI-H23,0.744
2,Calu-6,0.831
3,HCC-366,0.979
4,NCI-H1755,1
5,NCI-H838,1.01
6,LK-2,0.954
7,NCI-H2347,0.927
8,SK-MES-1,0.965
9,H3255,0.852
10,COR-L23,1.01
11,COR-L 105,0.784
12,IA-LM,0.858
13,LU99A,0.857
14,NCI-H2170,0.984
15,NCI-H460,0.974
16,HOP-62,0.945
17,HCC-44,0.905
18,A549,0.929

row,Cell Line,relative viability
1,LXF-289,0.993
2,BEN,1.3
3,HARA,0.887
4,HCC-78,1.04
5,NCI-H647,0.977
6,LCLC-97TM1,0.83
7,NCI-H2126,0.903
8,A-427,0.941
9,NCI-H650,0.787
10,RERF-LC-KJ,0.888
11,NCI-H1915,0.988
12,NCI-H661,0.926
13,NCI-H1975,0.788
14,NCI-H1395,0.889
15,201T,1.06
16,NCI-H2023,0.713
17,HCC-827,0.957

# Same assay, conditions: 2 µM
row,Cell Line,relative viability
1,NCI-H23,0.541
2,Calu-6,0.733
3,HCC-366,1.01
4,NCI-H1755,0.971
5,NCI-H838,1.11
6,LK-2,1.13
7,NCI-H2347,0.833
8,SK-MES-1,0.953
9,H3255,0.886
10,COR-L23,1.06
11,COR-L 105,0.697
12,IA-LM,0.769
13,LU99A,0.813
14,NCI-H2170,0.89
15,NCI-H460,0.989
16,HOP-62,0.9
17,HCC-44,0.628
